Assay results as given in PubChem BioAssay (NCI).
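Grown in 96-well plates, cells were treated for 48 hours with each compound at five concentrations. Insufficient inhibition: endpoint recorded as highest concentration tested. TGI denotes the concentration required for complete inhibition of growth.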

What was measured:
Test in all cases: NCI tumour cell line growth inhibition, 48 h
[1] = test system: SF-539 CNS
[2] = test system: A498 renal
[3] = test system: MCF7 breast
[4] = test system: RPMI-8226 leukemia
[5] = test system: MOLT-4 leukemia
[6] = test system: PC-3 prostate
[7] = test system: HL-60(TB) leukemia
[8] = test system: UACC-257 melanoma
[9] = test system: SF-295 CNS
[10] = test system: SF-268 CNS
[11] = test system: K-562 leukemia
[12] = test system: UACC-62 melanoma
[13] = test system: SK-MEL-5 melanoma
[14] = test system: NCI-H522 lung
[15] = test system: OVCAR-8 ovarian
[16] = test system: BT-549 breast
[17] = test system: SNB-19 CNS
[18] = test system: M14 melanoma
[19] = test system: SK-MEL-28 melanoma
[20] = test system: SW-620 colon
[21] = test system: SK-OV-3 ovarian
[22] = test system: UO-31 renal
[23] = test system: EKVX NSCLC
[24] = test system: MDA-N
[25] = test system: NCI/ADR-RES ovarian
[26] = test system: IGROV1 ovarian
[27] = test system: 786-0 renal
[28] = test system: A549 NSCLC
[29] = test system: HT29 colon
[30] = test system: OVCAR-3 ovarian
[31] = test system: NCI-H23 lung
[32] = test system: T-47D breast
[33] = test system: KM12 colon
[34] = test system: MALME-3M melanoma
[35] = test system: NCI-H226 lung
[36] = test system: LOX IMVI melanoma
[37] = test system: CCRF-CEM leukemia
[38] = test system: ACHN renal
[39] = test system: SN12C renal
[40] = test system: SR leukemia
[41] = test system: HS 578T breast
[42] = test system: TK-10 renal
[43] = test system: MDA-MB-435
[44] = test system: DU-145 prostate
[45] = test system: MDA-MB-231 breast
[46] = test system: SK-MEL-2 melanoma
[47] = test system: COLO 205 colon
[48] = test system: OVCAR-4 ovarian
[49] = test system: U251 CNS
[50] = test system: CAKI-1 renal
[51] = test system: HCT-15 colon
[52] = test system: HOP-62 NSCLC
[53] = test system: OVCAR-5 ovarian
[54] = test system: HOP-92 NSCLC
[55] = test system: HCT-116 colon
[56] = test system: NCI-H460 lung
[57] = test system: SNB-75 CNS
[58] = test system: RXF 393 renal

With `CCOc1cc(C(c2c(O)c3ccccc3oc2=O)c2c(O)c3ccccc3oc2=O)ccc1OC` the TGI [1] was 42.6 µM, the TGI [2] was 38.9 µM and the TGI [3] was 43.7 µM. For the same compound, the TGI [4] was 89.9 µM, the TGI [5] was 98.9 µM and the TGI [6] was 33.3 µM. It also gave a TGI [7] of 52.4 µM, a TGI [8] of 34.6 µM and a TGI [9] of 41.7 µM. For the same compound, the TGI [10] was 38.8 µM, the TGI [11] was over 100 µM and the TGI [12] was 33.2 µM. The TGI [13] was 44.6 µM, the TGI [14] was 36.3 µM and the TGI [15] was 42.4 µM. The TGI [16] was 41.4 µM, the TGI [17] was 61.8 µM and the TGI [18] was 38.9 µM. For the same compound, the TGI [19] was 72.2 µM, the TGI [20] was over 100 µM and the TGI [21] was 32.9 µM. For the same compound, the TGI [22] was 45.8 µM, the TGI [23] was 44.3 µM and the TGI [24] was 36.6 µM. The TGI [25] was 73.3 µM, the TGI [26] was 32.7 µM and the TGI [27] was 40.1 µM. For the same compound, the TGI [28] was over 100 µM, the TGI [29] was 65.9 µM and the TGI [30] was 33.3 µM. The TGI [31] was 52.6 µM, the TGI [32] was 38.3 µM and the TGI [33] was 36.5 µM. For the same compound, the TGI [34] was 34.8 µM, the TGI [35] was 59.1 µM and the TGI [36] was 45.8 µM. It also gave a TGI [37] of over 100 µM, a TGI [38] of 31.9 µM and a TGI [39] of 40.3 µM. The TGI [40] was over 100 µM, the TGI [41] was 77.5 µM and the TGI [42] was 32.1 µM. For the same compound, the TGI [43] was 32 µM, the TGI [44] was 37.6 µM and the TGI [45] was 31.9 µM. For the same compound, the TGI [46] was 42.2 µM, the TGI [47] was 36.4 µM and the TGI [48] was 34.1 µM. It also gave a TGI [49] of 29.5 µM, a TGI [50] of 30.5 µM and a TGI [51] of 47.6 µM. The TGI [52] was 39.9 µM, the TGI [53] was 40.1 µM and the TGI [54] was 32.8 µM. The TGI [55] was 37.9 µM.
With `CC1=CC(=O)C(=C(C)C)CC1` the TGI [3] was over 100 µM, the TGI [5] was over 100 µM and the TGI [6] was over 100 µM. For the same compound, the TGI [56] was over 100 µM, the TGI [7] was over 100 µM and the TGI [8] was over 100 µM. It also gave a TGI [9] of over 100 µM, a TGI [10] of over 100 µM and a TGI [11] of over 100 µM. The TGI [12] was over 100 µM, the TGI [13] was over 100 µM and the TGI [14] was over 100 µM. For the same compound, the TGI [15] was over 100 µM, the TGI [16] was over 100 µM and the TGI [17] was over 100 µM. The TGI [18] was over 100 µM, the TGI [19] was over 100 µM and the TGI [21] was over 100 µM. It also gave a TGI [22] of over 100 µM, a TGI [23] of over 100 µM and a TGI [24] of over 100 µM. For the same compound, the TGI [25] was over 100 µM, the TGI [57] was over 100 µM and the TGI [26] was over 100 µM. For the same compound, the TGI [58] was over 100 µM, the TGI [27] was over 100 µM and the TGI [28] was over 100 µM. The TGI [29] was over 100 µM, the TGI [30] was over 100 µM and the TGI [31] was over 100 µM. For the same compound, the TGI [32] was over 100 µM, the TGI [33] was over 100 µM and the TGI [34] was over 100 µM. The TGI [35] was over 100 µM, the TGI [36] was over 100 µM and the TGI [37] was over 100 µM. For the same compound, the TGI [38] was over 100 µM, the TGI [39] was over 100 µM and the TGI [40] was over 100 µM. The TGI [41] was over 100 µM, the TGI [42] was over 100 µM and the TGI [43] was over 100 µM. It also gave a TGI [44] of over 100 µM, a TGI [45] of over 100 µM and a TGI [48] of over 100 µM. It also gave a TGI [49] of over 100 µM, a TGI [50] of over 100 µM and a TGI [51] of over 100 µM. The TGI [52] was over 100 µM, the TGI [53] was over 100 µM and the TGI [55] was over 100 µM.
`CC(=O)N1N=C(c2cc(C)ccc2O)CC1c1cccc(Cl)c1` (stereo unspecified) showed a TGI [1] of 69.8 µM, a TGI [3] of 34.6 µM and a TGI [4] of 26.5 µM. For the same compound, the TGI [5] was 28 µM, the TGI [6] was 66.1 µM and the TGI [56] was 61.9 µM. For the same compound, the TGI [7] was 42.4 µM, the TGI [8] was 41.6 µM and the TGI [9] was 65 µM. It also gave a TGI [10] of 50.5 µM, a TGI [11] of over 100 µM and a TGI [12] of 35.2 µM. For the same compound, the TGI [13] was 27.8 µM, the TGI [14] was 14.3 µM and the TGI [15] was over 100 µM. It also gave a TGI [16] of over 100 µM, a TGI [17] of 28.5 µM and a TGI [18] of 84 µM. It also gave a TGI [20] of 93.5 µM, a TGI [21] of 54.9 µM and a TGI [22] of 50.3 µM. It also gave a TGI [23] of 91.8 µM, a TGI [24] of 5.44 µM and a TGI [25] of 61.2 µM. It also gave a TGI [26] of 8.45 µM, a TGI [58] of 34.2 µM and a TGI [27] of over 100 µM. For the same compound, the TGI [28] was 47.4 µM, the TGI [29] was 40.2 µM and the TGI [30] was over 100 µM. For the same compound, the TGI [31] was 68.1 µM, the TGI [32] was over 100 µM and the TGI [33] was over 100 µM. It also gave a TGI [34] of 62.1 µM, a TGI [35] of 58.8 µM and a TGI [36] of 39.6 µM. The TGI [37] was 57.8 µM, the TGI [38] was 47.8 µM and the TGI [39] was 77 µM. It also gave a TGI [40] of 9.42 µM, a TGI [41] of 43 µM and a TGI [42] of 68.7 µM. The TGI [43] was 4.05 µM, the TGI [44] was over 100 µM and the TGI [45] was 82.4 µM. It also gave a TGI [46] of 28.8 µM, a TGI [47] of 21.9 µM and a TGI [48] of 54.8 µM. The TGI [49] was 39.7 µM, the TGI [50] was over 100 µM and the TGI [51] was 5.51 µM. The TGI [52] was over 100 µM, the TGI [53] was over 100 µM and the TGI [54] was 37 µM. The TGI [55] was over 100 µM.
